Experimental data from ChEMBL document CHEMBL1129178, “Thiol inhibitors of endothelin-converting enzyme” (Bioorg Med Chem Lett, 1996).

Molecular target: T1, Endothelin-converting enzyme 1 (Rattus norvegicus) (UniProt P42893)
T1 sequence (whole entry): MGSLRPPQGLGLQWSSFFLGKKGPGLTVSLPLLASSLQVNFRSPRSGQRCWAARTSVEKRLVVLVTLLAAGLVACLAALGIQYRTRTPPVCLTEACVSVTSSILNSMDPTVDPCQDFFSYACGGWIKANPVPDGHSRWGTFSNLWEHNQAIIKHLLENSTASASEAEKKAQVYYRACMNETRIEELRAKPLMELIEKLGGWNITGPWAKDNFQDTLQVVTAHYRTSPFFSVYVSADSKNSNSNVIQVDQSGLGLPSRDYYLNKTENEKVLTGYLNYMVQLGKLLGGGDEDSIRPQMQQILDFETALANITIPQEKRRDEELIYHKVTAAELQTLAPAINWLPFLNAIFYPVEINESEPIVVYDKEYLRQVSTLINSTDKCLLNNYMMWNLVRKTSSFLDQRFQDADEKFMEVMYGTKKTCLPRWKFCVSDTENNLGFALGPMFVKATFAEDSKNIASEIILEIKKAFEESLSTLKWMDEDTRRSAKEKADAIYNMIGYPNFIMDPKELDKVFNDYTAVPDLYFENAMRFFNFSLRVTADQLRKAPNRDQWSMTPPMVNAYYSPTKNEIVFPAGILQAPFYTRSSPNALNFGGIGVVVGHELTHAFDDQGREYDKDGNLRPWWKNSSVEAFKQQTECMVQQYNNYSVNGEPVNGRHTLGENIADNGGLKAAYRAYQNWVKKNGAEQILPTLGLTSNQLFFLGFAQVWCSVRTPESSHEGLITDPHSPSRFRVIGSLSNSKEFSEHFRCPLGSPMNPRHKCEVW
Experiment: In vitro inhibition of cleavage of [3H]propionyl-big ET-1(19-35) by Endothelin-converting enzyme 1 from rat lungs at 10000 nM

O=C(O)[C@H](Cc1c[nH]c2ccccc12)NC(=O)[C@@H](S)Cc1ccccc1 showed an inhibition of 65%.

Molecular target: T2, Endothelin-converting enzyme 1 (Rattus norvegicus, UniProt P42893)
T2 sequence (P42893 whole entry): T1 sequence (whole entry)
Experiment: In vitro inhibition of Endothelin-converting enzyme 1 from rat lungs.

O=C(N[C@@H](Cc1ccc(-c2cccs2)cc1)C(=O)O)C(CS)Cc1cccc(Br)c1 (stereo partly specified) and O=C(N[C@@H](Cc1ccc(-c2cccs2)cc1)C(=O)O)[C@@H](CS)Cc1ccccc1 are within 1.5-fold of each other in IC50: 80 nM for the first, 55 nM for the second.

Going from COc1ccc(-c2ccc(C[C@H](NC(=O)[C@@H](CS)Cc3ccccc3)C(=O)O)cc2)cc1 to O=C(N[C@@H](Cc1ccc(-c2ccccc2)cc1)C(=O)O)[C@@H](CS)Cc1ccccc1, the IC50 falls from 800 nM to 150 nM (5.3-fold).

First: COC(=O)[C@H](Cc1c[nH]c2ccccc12)NC(=O)[C@@H](CS)Cc1ccccc1
Second: COC(=O)[C@H](Cc1c[nH]c2ccccc12)NC(=O)[C@H](CS)Cc1ccccc1
The IC50 of the first is 1.9-fold lower: 1800 nM for the first, 3500 nM for the second.

O=C(N[C@@H](Cc1ccc(OCc2ccccc2)cc1)C(=O)O)[C@@H](CS)Cc1ccccc1 and O=C(N[C@@H](Cc1c[nH]c2ccccc12)C(=O)O)C(CS)Cc1ccc(OCc2ccccc2)cc1 (stereo partly specified) are within 1.5-fold of each other in IC50: 700 nM for the first, 800 nM for the second.

O=C(N[C@@H](Cc1c[nH]c2ccccc12)C(=O)O)C(CS)Cc1ccccc1 (stereo partly specified) and O=C(N[C@@H](Cc1c[nH]c2ccccc12)C(=O)O)[C@H](CS)Cc1ccccc1 are within 1.5-fold of each other in IC50: 340 nM for the first, 500 nM for the second.

Compared with O=C(N[C@@H](Cc1ccccc1)C(=O)O)[C@@H](CS)Cc1ccccc1, O=C(N[C@@H](Cc1ccc(O)cc1)C(=O)O)[C@@H](CS)Cc1ccccc1 is 2.3-fold higher in IC50: 1200 nM for the first, 2800 nM for the second. The first is the more potent here.

Going from COC(=O)[C@H](Cc1c[nH]c2ccccc12)NC(=O)[C@H](S)Cc1ccccc1 to O=C(N[C@@H](Cc1c[nH]c2ccccc12)C(=O)O)[C@H](S)Cc1ccccc1, the IC50 falls from 2200 nM to 400 nM (5.5-fold). The second is the more potent here.

First: O=C(N[C@@H](Cc1c[nH]c2ccccc12)C(=O)O)C(CS)Cc1cc2c(cc1Cl)OCO2 (stereo partly specified)
Second: O=C(N[C@@H](Cc1c[nH]c2ccccc12)C(=O)O)C(CS)Cc1ccc(Br)cc1 (stereo partly specified)
The IC50 of the first is 16-fold higher: 400 nM for the first, 25 nM for the second.

Going from O=C(N[C@@H](Cc1ccc(-c2ccc3ccccc3c2)cc1)C(=O)O)[C@@H](CS)Cc1ccccc1 to O=C(N[C@@H](Cc1c[nH]c2ccccc12)C(=O)O)C(CS)Cc1ccc(-c2ccccc2)cc1 (stereo partly specified), the IC50 falls from 300 nM to 40 nM (7.5-fold).

Going from O=C(N[C@@H](Cc1c[nH]c2ccccc12)C(=O)O)C(CS)Cc1cccc(-c2ccccc2)c1 (stereo partly specified) to O=C(N[C@@H](Cc1c[nH]c2ccccc12)C(=O)O)[C@@H](CS)Cc1ccccc1, the IC50 rises from 40 nM to 180 nM (4.5-fold).
